Test results reported in ChEMBL document CHEMBL1201862, “PubChem BioAssay data set” (2004).
Active and inactive are the calls of the source.

Assays:
Cytochrome P450 2C9 = Cytochrome P450 2C9 (Homo sapiens, UniProt P11712)
[1] = target: T1, Corticotropin-releasing factor receptor 2/Corticotropin-releasing factor-binding protein (Homo sapiens, UniProt P24387+Q13324); experiment: activators of CRF receptor 2 with binding protein – uHTS hits, confirmation (AID 602473); assay type: functional; conditions: read-out: EC50_Mean
T1 sequence (Q13324 whole entry): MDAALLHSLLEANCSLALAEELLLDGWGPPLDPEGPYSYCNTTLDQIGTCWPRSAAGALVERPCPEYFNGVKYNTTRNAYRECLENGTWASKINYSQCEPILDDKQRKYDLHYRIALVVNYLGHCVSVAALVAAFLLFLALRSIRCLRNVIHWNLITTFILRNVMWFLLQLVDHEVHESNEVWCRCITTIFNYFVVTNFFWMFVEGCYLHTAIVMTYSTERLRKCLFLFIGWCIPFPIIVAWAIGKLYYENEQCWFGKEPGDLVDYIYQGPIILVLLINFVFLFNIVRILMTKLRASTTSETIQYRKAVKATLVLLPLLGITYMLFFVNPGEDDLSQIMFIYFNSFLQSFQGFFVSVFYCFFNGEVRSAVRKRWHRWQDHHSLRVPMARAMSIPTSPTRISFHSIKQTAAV
T1 sequence (P24387 whole entry): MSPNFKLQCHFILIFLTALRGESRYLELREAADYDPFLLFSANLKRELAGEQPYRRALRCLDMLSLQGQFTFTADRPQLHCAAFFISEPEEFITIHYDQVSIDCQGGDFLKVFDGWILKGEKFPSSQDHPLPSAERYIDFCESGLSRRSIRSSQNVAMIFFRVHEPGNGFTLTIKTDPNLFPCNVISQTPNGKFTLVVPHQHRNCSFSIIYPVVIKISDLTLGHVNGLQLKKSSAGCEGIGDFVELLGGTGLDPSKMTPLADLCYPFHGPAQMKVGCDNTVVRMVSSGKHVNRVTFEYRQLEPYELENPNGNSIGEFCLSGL

[2] = target: T1, Corticotropin-releasing factor receptor 2/Corticotropin-releasing factor-binding protein; experiment: Dose Response confirmation of uHTS hits for small molecule antagonists of the CRF-binding protein and CRF-R2 receptor complex.; assay type: functional; conditions: read-out: IC50_Mean
Cytochrome P450 2C19 = Cytochrome P450 2C19 (Homo sapiens, UniProt P33261); experiment: Cytochrome panel assay with activity outcomes. Panel member name: p450-cyp2c19 Compounds with AC50 equal or less than 10 uM are considered active; assay type: functional
Sequence of Cytochrome P450 2C19 (P33261 whole entry): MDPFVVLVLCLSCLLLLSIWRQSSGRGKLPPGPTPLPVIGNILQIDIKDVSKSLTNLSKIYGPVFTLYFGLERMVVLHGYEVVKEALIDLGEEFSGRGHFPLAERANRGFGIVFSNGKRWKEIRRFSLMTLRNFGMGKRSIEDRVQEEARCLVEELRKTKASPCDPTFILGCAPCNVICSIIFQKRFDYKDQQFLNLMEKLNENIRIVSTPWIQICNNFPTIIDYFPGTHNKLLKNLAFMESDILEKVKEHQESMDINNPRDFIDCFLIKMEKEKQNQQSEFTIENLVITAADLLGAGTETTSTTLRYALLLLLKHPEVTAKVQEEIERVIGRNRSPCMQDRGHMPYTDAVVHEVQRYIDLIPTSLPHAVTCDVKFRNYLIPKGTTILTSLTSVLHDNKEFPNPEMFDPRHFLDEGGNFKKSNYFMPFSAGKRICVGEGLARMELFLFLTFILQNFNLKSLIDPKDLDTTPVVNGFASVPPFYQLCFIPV

[3] = target: T2, Heat shock factor protein 1 (Mus musculus, UniProt P38532); experiment: decrease of HSF1-responsive luciferase luminescence – cell-based, NIH3T3, dose retest, confirmation (AID 2382); assay type: functional;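 note: NIH3T3 fibroblasts with HSF1-driven luciferase reporter stressed by proteasome inhibitor MG132; luminescence from HSF1-driven luciferase expression after 8 hours of MG132 stress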
T2 sequence (P38532 whole entry): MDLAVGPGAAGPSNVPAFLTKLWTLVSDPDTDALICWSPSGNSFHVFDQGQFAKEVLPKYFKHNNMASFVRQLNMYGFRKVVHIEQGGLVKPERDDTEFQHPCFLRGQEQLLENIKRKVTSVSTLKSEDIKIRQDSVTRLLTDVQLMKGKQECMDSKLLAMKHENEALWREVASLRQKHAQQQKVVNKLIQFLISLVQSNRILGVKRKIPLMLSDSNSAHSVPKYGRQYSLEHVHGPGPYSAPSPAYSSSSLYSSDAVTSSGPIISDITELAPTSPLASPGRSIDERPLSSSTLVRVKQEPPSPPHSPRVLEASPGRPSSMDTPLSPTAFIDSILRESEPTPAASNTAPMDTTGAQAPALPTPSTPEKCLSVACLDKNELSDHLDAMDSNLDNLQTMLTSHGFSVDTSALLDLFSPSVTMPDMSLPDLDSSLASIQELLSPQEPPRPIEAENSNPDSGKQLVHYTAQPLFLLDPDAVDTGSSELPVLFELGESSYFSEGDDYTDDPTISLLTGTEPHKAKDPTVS

Cytochrome P450 2D6 = Cytochrome P450 2D6 (Homo sapiens, UniProt P10635);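 note: CYP2D6 member of a cytochrome P450 panel assay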
Sequence of Cytochrome P450 2D6 (P10635 whole entry): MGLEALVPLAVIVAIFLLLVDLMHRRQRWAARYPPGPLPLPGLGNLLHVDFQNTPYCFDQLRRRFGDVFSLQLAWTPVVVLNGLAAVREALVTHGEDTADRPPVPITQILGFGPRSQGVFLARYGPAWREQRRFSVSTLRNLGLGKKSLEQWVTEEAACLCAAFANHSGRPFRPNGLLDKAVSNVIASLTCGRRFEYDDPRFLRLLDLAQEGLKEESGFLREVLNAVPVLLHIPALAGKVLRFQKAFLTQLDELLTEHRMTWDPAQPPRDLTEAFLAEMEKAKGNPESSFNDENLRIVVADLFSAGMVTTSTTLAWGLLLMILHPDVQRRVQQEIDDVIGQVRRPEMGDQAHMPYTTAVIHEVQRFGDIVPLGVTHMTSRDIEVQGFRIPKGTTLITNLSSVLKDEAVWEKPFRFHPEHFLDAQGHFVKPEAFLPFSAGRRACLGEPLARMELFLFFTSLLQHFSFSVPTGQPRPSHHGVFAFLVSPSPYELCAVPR

Cytochrome P450 1A2 = target: T3, Cytochrome P450 1A2 (Homo sapiens, UniProt P05177);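 note: PubChem cytochrome P450 panel assay, CYP1A2 panel member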
T3 sequence (P05177 whole entry): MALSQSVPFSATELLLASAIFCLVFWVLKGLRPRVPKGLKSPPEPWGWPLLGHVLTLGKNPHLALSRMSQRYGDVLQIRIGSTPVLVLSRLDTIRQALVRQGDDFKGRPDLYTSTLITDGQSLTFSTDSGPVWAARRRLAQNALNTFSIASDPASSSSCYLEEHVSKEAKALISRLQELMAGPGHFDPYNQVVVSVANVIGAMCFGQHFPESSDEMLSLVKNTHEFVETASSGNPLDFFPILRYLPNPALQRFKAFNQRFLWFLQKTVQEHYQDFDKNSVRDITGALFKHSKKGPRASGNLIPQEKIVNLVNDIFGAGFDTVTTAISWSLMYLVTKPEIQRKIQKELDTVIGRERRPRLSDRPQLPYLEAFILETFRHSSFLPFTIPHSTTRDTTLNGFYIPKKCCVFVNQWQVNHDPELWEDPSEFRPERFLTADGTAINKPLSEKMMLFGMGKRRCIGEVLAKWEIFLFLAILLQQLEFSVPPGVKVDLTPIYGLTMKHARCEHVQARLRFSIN

[4] = target: T4, Rac GTPase-activating protein 1 (Homo sapiens, UniProt Q9H0H5); experiment: blockers of MgcRacGAP-driven Rac1 GTP hydrolysis – biochemical, ADP Hunter fluorescence, primary and confirmatory, confirmation (AID 624330); assay type: functional
T4 sequence (Q9H0H5 whole entry): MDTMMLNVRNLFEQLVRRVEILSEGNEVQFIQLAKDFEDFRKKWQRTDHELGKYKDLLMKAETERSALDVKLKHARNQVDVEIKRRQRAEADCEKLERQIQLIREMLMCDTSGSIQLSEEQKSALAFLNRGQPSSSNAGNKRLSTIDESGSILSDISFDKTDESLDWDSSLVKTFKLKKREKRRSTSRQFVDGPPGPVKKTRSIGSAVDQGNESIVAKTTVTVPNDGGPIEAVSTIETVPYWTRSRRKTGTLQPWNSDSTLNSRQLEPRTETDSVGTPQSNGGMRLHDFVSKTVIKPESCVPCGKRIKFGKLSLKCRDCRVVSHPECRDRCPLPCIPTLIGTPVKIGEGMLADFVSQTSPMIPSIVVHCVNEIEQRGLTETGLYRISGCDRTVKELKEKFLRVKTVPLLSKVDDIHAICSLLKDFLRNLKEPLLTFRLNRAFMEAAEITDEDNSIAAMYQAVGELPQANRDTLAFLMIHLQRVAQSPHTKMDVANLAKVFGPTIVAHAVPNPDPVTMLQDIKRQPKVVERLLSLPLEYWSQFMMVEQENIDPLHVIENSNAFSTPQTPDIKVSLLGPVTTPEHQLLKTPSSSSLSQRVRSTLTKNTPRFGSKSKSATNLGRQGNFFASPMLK

Sequence of Cytochrome P450 2C9 (P11712 whole entry): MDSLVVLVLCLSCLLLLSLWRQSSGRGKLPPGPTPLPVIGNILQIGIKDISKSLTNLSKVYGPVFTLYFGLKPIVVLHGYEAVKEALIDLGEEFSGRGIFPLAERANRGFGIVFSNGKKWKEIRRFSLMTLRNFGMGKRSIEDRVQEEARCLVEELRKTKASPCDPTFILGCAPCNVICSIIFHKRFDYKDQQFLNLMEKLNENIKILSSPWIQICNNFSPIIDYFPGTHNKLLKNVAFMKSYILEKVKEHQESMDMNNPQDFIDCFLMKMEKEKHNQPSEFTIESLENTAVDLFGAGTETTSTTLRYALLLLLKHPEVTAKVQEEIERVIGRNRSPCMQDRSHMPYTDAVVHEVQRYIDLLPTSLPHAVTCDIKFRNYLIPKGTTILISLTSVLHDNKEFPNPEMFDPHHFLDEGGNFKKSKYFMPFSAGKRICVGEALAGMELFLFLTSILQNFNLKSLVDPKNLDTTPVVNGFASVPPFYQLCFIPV

Clc1cccc(Oc2cnc3ccccc3n2)c1
AC50 (Cytochrome P450 2C9): 14.1 µM (inconclusive)

CCn1cc(C2=NOC(C(=O)Nc3ccccc3C(=O)OC)C2)c(C)n1 (configuration not stated)
EC50 [1]: > 53 µM (inactive)
IC50 [2]: > 47.1 µM (inactive)

CCCS(=O)(=O)N1CCCC(C(=O)NCCCN2CCN(c3ccccc3F)CC2)C1 (configuration not stated)
AC50 (Cytochrome P450 2C19; read-out: AC50): 39.8 µM (inconclusive)
AC50 (Cytochrome P450 2C9): 5.01 µM (inconclusive)

Cn1c(=O)c(C(=O)NCc2ccccc2Cl)c(O)c2ccccc21
EC50 [1]: > 53 µM (inactive)
IC50 [2]: > 47.1 µM (inactive)

CC(C)CCNC(=O)CN(C(=O)CCC(=O)Nc1nccs1)c1ccc2c(c1)OCCO2
EC50 [3]: 5.9 µM (active)

CN1CCN(c2nc(-c3ccc(C(C)(C)C)cc3)nc3ccccc23)CC1
EC50 [3]: 0.328 µM (active)

N=C1[C@@H](O)[C@]2(I)c3ccccc3N3C(=N)[C@H](O)[C@@H]4c5ccccc5N1[C@@H]4[C@@H]32
AC50 (Cytochrome P450 2D6): 6.31 µM (inconclusive)
AC50 (Cytochrome P450 2C9): 7.94 µM (inconclusive)

CC(=O)Nc1nn(C)c2nc(C)cc(C)c12
EC50 [3]: > 195 µM (not active)

COc1cc(=O)n2c(n1)SCCC2
AC50 (Cytochrome P450 2C9): 31.6 µM (inconclusive)

COc1ccc(NC(C)=O)cc1NC(=O)CN1CCN(CC(=O)Nc2ccccc2Cl)CC1
AC50 (Cytochrome P450 2C9): 20 µM (inconclusive)
EC50 [3]: > 195 µM (not active)

CC1CC(=O)Nc2cc([N+](=O)[O-])ccc2N1 (configuration not stated)
EC50 [3]: > 195 µM (not active)

CCN=C(S)NNC(=O)c1cccc(Br)c1
AC50 (Cytochrome P450 1A2): 17.8 µM (inconclusive)
AC50 (Cytochrome P450 2C19; read-out: AC50): 5.62 µM (inconclusive)

COc1ccc(C(C)N2CC34C=CC(O3)C(C(=O)O)C4C2=O)cc1 (configuration not stated)
EC50 [3]: > 195 µM (not active)

Cc1ccc2[nH]c(Cc3ccc(N)cc3)nc2c1
AC50 (Cytochrome P450 2C9): 14.1 µM (inconclusive)

NS(=O)(=O)c1ccc(NC(=O)CSc2nnc(COc3ccccc3Cl)n2C2CC2)cc1
EC50 [1]: > 53 µM (inactive)
IC50 [2]: > 47.1 µM (inactive)

Cc1cnc(C(=O)Nc2ccccc2-n2cccc2)cn1
EC50 [3]: > 195 µM (not active)

Oc1c2c(nc3c(-c4ccccc4)cnn13)CCC2
AC50 (Cytochrome P450 2C19; read-out: AC50): 31.6 µM (inconclusive)
AC50 (Cytochrome P450 2C9): 22.4 µM (inconclusive)

O=C1C2C3C=CC(C3)C2C(=O)N1CCCO (configuration not stated)
EC50 [1]: > 53 µM (inactive)
IC50 [2]: > 47.1 µM (inactive)

N#C/C(=C/c1cccc(C(F)(F)F)c1)c1nc(CCN2C(=O)c3ccccc3C2=O)cs1
EC50 [3]: > 195 µM (not active)

CCOC(=O)C1CCN(C(=O)c2n[nH]c(=O)c3ccccc23)CC1
EC50 [1]: > 53 µM (inactive)
IC50 [2]: > 47.1 µM (inactive)

CN1CCN(c2ncc3nc(-c4ccc(Cl)cc4)c(=O)n(CCC#N)c3n2)CC1
AC50 (Cytochrome P450 1A2): 15.8 µM (inconclusive)
AC50 (Cytochrome P450 2C19): inconclusive

COc1ccc2cc(OCC(=O)NNC(=O)Nc3ccc(F)cc3)ccc2c1
IC50 [4]: 65 µM (active)

Fc1cccc(NC(S)=NCc2ccc(Cl)cc2)c1
EC50 [1]: > 53 µM (inactive)
IC50 [2]: > 47.1 µM (inactive)

NS(=O)(=O)c1ccc(CN=C(S)NC2CCCCC2)cc1
EC50 [3]: > 195 µM (not active)

CCN1CCN(CC(c2ccccc2)c2ccccc2)CC1
IC50 [4]: 197 µM (active)

C=CCn1c(SCC(C)=O)nnc1-c1cc(-c2ccccc2)sc1N
IC50 [4]: 29.1 µM (active)

CCn1c(SCC(=O)NC(=O)NCc2ccco2)nnc1-c1cccs1
AC50 (Cytochrome P450 2C9): 39.8 µM (inconclusive)

COc1ccccc1CNc1ccnc(-c2c(C)noc2C)n1
AC50 (Cytochrome P450 2D6): 20 µM (inconclusive)
AC50 (Cytochrome P450 2C9): 0.501 µM (inconclusive)

Nc1ccc(O)c([N+](=O)[O-])c1
IC50 [4]: 42.8 µM (active)

CCCN1Cc2cccc(C(=O)N3CCN(c4ccc(OC)cc4)CC3)c2C1=O
EC50 [3]: > 195 µM (not active)

Cc1ccc(/N=N\c2c(O)ccc3cc(S(=O)(=O)O)ccc23)cc1
AC50 (Cytochrome P450 1A2): 5.01 µM (inconclusive)
AC50 (Cytochrome P450 2C9): 3.16 µM (inconclusive)

c1ccc(-n2c(-c3ccncc3)nnc2-c2ccco2)cc1
EC50 [1]: > 53 µM (inactive)
IC50 [2]: > 47.1 µM (inactive)

Cc1ncn(C23CC4CC(CC(C4)C2)C3)n1
EC50 [1]: > 53 µM (inactive)
IC50 [2]: > 47.1 µM (inactive)

Cc1cccc(CN2CCN(Cc3ccco3)CC2)c1
IC50 [4]: 87.2 µM (active)

Cc1ccc(S(=O)(=O)N2CCN(CCNC(=O)C(=O)NCc3ccccc3)CC2)cc1
EC50 [3]: > 195 µM (not active)

c1ccc(-c2nc3ccccc3c3nncn23)cc1
EC50 [3]: > 195 µM (not active)

COc1ccc(-c2csc(NC(=O)CN3C(=O)C4CC=CCC4C3=O)n2)cc1OC (configuration not stated)
EC50 [1]: > 53 µM (inactive)
IC50 [2]: > 47.1 µM (inactive)

COC(=O)CC1SC(=O)NC1=Nc1ccc(OC)cc1 (configuration not stated)
EC50 [1]: > 53 µM (inactive)
IC50 [2]: > 47.1 µM (inactive)

Nc1ccn([C@@H]2O[C@H](CNCC3=CCOc4ccc(O)cc43)[C@@H](O)[C@H]2O)c(=O)n1
IC50 [4]: 92.4 µM (active)

Cc1onc(-c2ccccc2Cl)c1C(=O)NCc1ccc(N2CCCC2=O)cc1
EC50 [1]: > 53 µM (inactive)
IC50 [2]: > 47.1 µM (inactive)

CCOc1cc(/C=N/NC(=O)c2ccccc2-n2cccc2)ccc1O
IC50 [4]: 46.2 µM (active)

COc1ccc(/C=N/NC(=O)c2cccc(S(=O)(=O)N3CCCC3)c2)cc1O
IC50 [4]: 57.5 µM (active)

O=[N+]([O-])c1ccc(Nc2nc(N/N=C\c3ccc4c(c3)OCO4)nc(N3CCCCC3)n2)cc1
AC50 (Cytochrome P450 1A2): 8.91 µM (inconclusive)
AC50 (Cytochrome P450 2C9): 8.91 µM (inconclusive)

O=C1/C(=N\O)Cc2ccccc21
AC50 (Cytochrome P450 1A2): 14.1 µM (inconclusive)
AC50 (Cytochrome P450 2C19; read-out: AC50): 39.8 µM (inconclusive)

COc1ccc(/C=N/NC(=O)c2ccc(CSc3nc(C)cc(C)n3)cc2)cc1O
IC50 [4]: 114 µM (active)

O=C(N/N=C/c1ccc(O)cc1)c1csc2c1CCCC2
IC50 [4]: 51.6 µM (active)
